Measurements as given in the supplement of paper PMC10307832.

Legend:
Experiment in all cases: relative viability (nuclei count vs DMSO), 5 days (fraction); higher = more cells survive
CUDC-101 + Trametinib = compound: C#Cc1cccc(Nc2ncnc3cc(OC)c(OCCCCCCC(=O)NO)cc23)c1 [CUDC-101] + CC(=O)Nc1cccc(-n2c(=O)n(C3CC3)c(=O)c3c(Nc4ccc(I)cc4F)n(C)c(=O)c(C)c32)c1 [Trametinib] (partner 0.02 µM)
Outline: (§1)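 Five library-drug doses in √10 steps were combined with a fixed anchor-drug dose, or a single drug was given alone, by pin tool to lung cancer cell lines in 1536-well plates the day after seeding. Nuclei were stained and counted after 5 days. Relative viability is the nuclei count in treated wells over that in vehicle wells, taken as the median of duplicate plates.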

NVP-TAE684 + Pictilisib = compound: COc1cc(N2CCC(N3CCN(C)CC3)CC2)ccc1Nc1ncc(Cl)c(Nc2ccccc2S(=O)(=O)C(C)C)n1 [NVP-TAE684] + CS(=O)(=O)N1CCN(Cc2cc3nc(-c4cccc5[nH]ncc45)nc(N4CCOCC4)c3s2)CC1 [Pictilisib] (partner 1 µM)
Outline: as §1

Vandetanib + Alpelisib = compound: COc1cc2/c(=N/c3ccc(Br)cc3F)nc[nH]c2cc1OCC1CCN(C)CC1 [Vandetanib] + Cc1nc(NC(=O)N2CCC[C@H]2C(N)=O)sc1-c1ccnc(C(C)(C)C(F)(F)F)c1 [Alpelisib] (partner 2 µM)
Outline: as §1

Vandetanib + Phenformin = compound: COc1cc2/c(=N/c3ccc(Br)cc3F)nc[nH]c2cc1OCC1CCN(C)CC1 [Vandetanib] + N=C(N)NC(=N)NCCc1ccccc1 [Phenformin] (partner 250 µM)
Outline: as §1

For UMC-11, the relative viability (CUDC-101 + Trametinib; first compound 0.01 µM) was 0.727, the relative viability (CUDC-101 + Trametinib; first compound 0.03162 µM) was 0.761 and the relative viability (CUDC-101 + Trametinib; first compound 0.1 µM) was 0.578. For the same cell line, the relative viability (CUDC-101 + Trametinib; first compound 0.3162 µM) was 0.399, the relative viability (CUDC-101 + Trametinib; first compound 1 µM) was 0.127 and the relative viability (NVP-TAE684 + Pictilisib; first compound 0.2 µM) was 0.979. It also gave a relative viability (NVP-TAE684 + Pictilisib; first compound 2 µM) of 0.586, a relative viability (Vandetanib + Alpelisib; first compound 0.02 µM) of 0.897 and a relative viability (Vandetanib + Alpelisib; first compound 0.06325 µM) of 0.975. It also gave a relative viability (Vandetanib + Alpelisib; first compound 0.2 µM) of 0.905, a relative viability (Vandetanib + Alpelisib; first compound 0.6325 µM) of 0.908 and a relative viability (Vandetanib + Alpelisib; first compound 2 µM) of 0.922. For the same cell line, the relative viability (Vandetanib + Phenformin; first compound 0.02 µM) was 0.3, the relative viability (Vandetanib + Phenformin; first compound 0.06325 µM) was 0.308 and the relative viability (Vandetanib + Phenformin; first compound 0.2 µM) was 0.33. The relative viability (Vandetanib + Phenformin; first compound 0.6325 µM) was 0.289 and the relative viability (Vandetanib + Phenformin; first compound 2 µM) was 0.335.
